# Test results: ChEMBL document CHEMBL4145615, “Indolyl Azaspiroketal Mannich Bases Are Potent Antimycobacterial Agents with Selective Membrane Permeabilizing Effects and in Vivo Activity” (J Med Chem, 2018)
# Test system: Mycobacterium tuberculosis variant bovis BCG
# Assay: Antimycobacterial activity against Mycobacterium bovis BCG ATCC 35734 after 5 days by broth dilution method
# Type: functional
# Details: ATCC 35734, 120 h
SMILES,MIC50 [µM],MIC90 [µM]
CCCCCCCCn1cc(CNCC2CCC3CC3C2)c2ccc(OC)cc21 (stereo unspecified),1.6,2.3
CCCCCCCCn1cc(CN2CCCC3(C2)CC3(F)F)c2ccc(OC)cc21 (stereo unspecified),13,25
CCCCCCCCn1cc(CN2CCC3(CCc4ccccc43)CC2)c2ccc(OC)cc21,1,2
COc1ccc2c(CN3CCCCC3)cn(CCCc3ccccc3)c2c1,36,> 50
CCCCCCCCn1cc(CNCC2CCC3(CCCC3)O2)c2ccc(OC)cc21 (stereo unspecified),1.8,4.6
CCCCCCCCn1cc(CNC2CCC(=O)CC2)c2ccc(OC)cc21,15,24
COc1ccc(OCCCn2cc(CN3CCC4(CC3)OCCO4)c3ccc(OC)cc32)cc1,6,13
CCCCCCCCn1cc(CNCC2CC3CC3C2)c2ccc(OC)cc21 (stereo unspecified),2,4
CCCCCCCCn1ccc2cc(OCCCN3CCC4(CC3)OCCCO4)ccc21,14,31
CCCCCCCCn1cc(CN2CCC3(CC2)OCCCO3)c2ccc(C#N)cc21,0.5,1.2
COc1ccc2c(CN3CCC4(CC3)OCCO4)cn(CCCCOc3ccccc3)c2c1,20,41
CCCCCCCCn1ccc2c(OCCCN3CCCC3)cccc21,18,36
COc1ccc(CCCn2cc(CN3CCC4(CC3)OCCCO4)c3ccc(OC)cc32)cc1,4.1,9.3
CCCCCCCCn1cc(CN2CC3C(C2)C3(F)F)c2ccc(OC)cc21 (stereo unspecified),21,50
COc1ccc2c(CN3CCC4(CC3)OCCO4)cn(CCCOCc3ccccc3)c2c1,16,40
CCCCCCCCn1cc(CN2CCC3(CC2)OCCCO3)c2cc([N+](=O)[O-])ccc21,7,18
COc1ccc2c(CN3CCCCC3)cn(CCCOc3ccc(F)cc3)c2c1,20,43
COc1ccc(OCCCn2cc(CN3CCCCC3)c3ccc(OC)cc32)cc1,34,> 50
CCCCCCCCn1cc(CN2CCC3(CC2)OC(C)C(C)O3)c2ccc(OC)cc21 (stereo unspecified),0.7,1.6
CCCCCCCCn1cc(CN2CCC3(CC2)OCCCO3)c2ccc(OC(C)C)cc21,0.6,1.6
COc1ccc2c(CN3CCC4(CC3)OCCCO4)cn(CCCOc3ccccc3)c2c1,1.3,3.1
CCCCCCCCn1ccc2cc(OCCCN3CCCC3)ccc21,31,48

SMILES,MIC50 [µM],MIC90 [µM]
CCCCCCCCn1cc(CN2CCC3(CCN(Cc4ccccc4)CC3)CC2)c2ccc(OC)cc21,2.3,4.4
CCCCCCCCn1cc(CN2CCCCC2)c2ccc(OC(C)C)cc21,4,6
CCCCCCCCn1ccc2ccc(OCCCN3CCCCCC3)cc21,3.9,12
COc1ccc2c(CN3CCC4(CC3)OCCO4)cn(CCCOc3ccc(C)c(C)c3)c2c1,4.6,11
CCCCCCCCn1cc(CN2CCC3(CC2)OCCO3)c2ccc(OCCC)cc21,3,5
COc1ccc2c(CN3CCC4(CC3)OCCO4)cn(CCCCc3ccccc3)c2c1,4.9,11.5
COc1ccc2c(CN3CCC4(CC3)OCCCO4)cn(CCCOCc3ccccc3)c2c1,2,6
CCCCCCCCn1ccc2c(OCCCN3CCCCCC3)cccc21,9.5,22
CCCCCCCCn1cc(CN2CC(n3cccn3)C2)c2ccc(OC)cc21,6,15
COc1ccc(OCCCn2cc(CN3CCC4(CC3)OCCCO4)c3ccc(OC)cc32)cc1,1.5,3.5
COc1ccc2c(CN3CCC4(CC3)OCCO4)cn(CCCOc3ccccc3)c2c1,3,10
COc1ccc2c(CN3CCCCC3)cn(CCCOc3ccccc3)c2c1,30,50
COc1ccc2c(CN3CCC4(CC3)OCCO4)cn(CCCc3ccccc3)c2c1,6,18
CCCCCCCCn1cc(CN2CCC(S(N)(=O)=O)CC2)c2ccc(OC)cc21,8,22
CCCCCCCCn1cc(CN2CCC3(CC2)OCCO3)c2ccc(OC(C)C)cc21,3,6
COc1ccc2c(CN3CCC4(CC3)OCCCO4)cn(C/C=C/c3ccccc3)c2c1,4.8,9
CCCCCCCCn1cc(CN2[C@H]3CCC[C@@H]2CCC3)c2ccc(OC)cc21,3.8,7.6
CCCCCCCCn1cc(CN2CCC3(CC2)OCCCO3)c2ccc([N+](=O)[O-])cc21,0.3,0.8
CCCCCCCCn1cc(CN2CCC3(C2)CC3(F)F)c2ccc(OC)cc21 (stereo unspecified),13,18
COc1ccc2c(CN3CCC4(CC3)OCCO4)cn(C/C=C/c3ccccc3)c2c1,15,31
CCCCCCCCn1ccc2cc(OCCCN3CCCCCC3)ccc21,1.9,8
